{"source": "patent US8252832B2", "about": "“Kinesin inhibitors as cancer therapeutics” (Novartis AG, priority 2007, dated 2012)", "assay_in_all_cases": "CellTiter-Glo, NCI60 panel", "type_in_all_cases": "cell-based", "key": {"NCI-H322M": {"system": "NCI-H322M", "details": "NSCL; for GI50: Homo sapiens", "in_short": "(§1)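 Luciferase-based ATP read-out (CellTiter-Glo) as a measure of viable cell number. Adherent lines were plated and left 24 h before dosing, non-adherent lines dosed at once. Treatment ran 48 h at 37° C. The value is the concentration giving 50% reduction in growth.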"}, "SNB-75": {"system": "SNB-75", "details": "CNS; for GI50: Homo sapiens", "in_short": "as §1"}, "UACC-257": {"system": "UACC-257", "details": "Melanoma; for GI50: Homo sapiens", "in_short": "as §1"}, "HS 578T": {"system": "HS 578T", "details": "Breast; for GI50: Homo sapiens", "in_short": "as §1"}, "CAKI-1": {"system": "CAKI-1", "details": "Renal; for GI50: Homo sapiens", "in_short": "as §1"}, "A498": {"system": "A498", "details": "Renal; for GI50: Homo sapiens", "in_short": "as §1"}, "SN12C": {"system": "SN12C", "details": "Renal; for GI50: Homo sapiens", "in_short": "as §1"}, "MDA-MB-231": {"system": "MDA-MB-231", "details": "Breast; for GI50: Homo sapiens", "in_short": "as §1"}, "MOLT-4": {"system": "MOLT-4", "details": "Leukemia; for GI50: Homo sapiens", "in_short": "as §1"}, "NCI-H460": {"system": "NCI-H460", "details": "NSCL; for GI50: Homo sapiens", "in_short": "as §1"}, "MDA-MB-435": {"system": "MDA-MB-435", "details": "Melanoma; for GI50: Homo sapiens", "in_short": "as §1"}, "SK-MEL-2": {"system": "SK-MEL-2", "details": "Melanoma; for GI50: Homo sapiens", "in_short": "as §1"}, "MCF7": {"system": "MCF7", "details": "Breast; for GI50: Homo sapiens", "in_short": "as §1"}, "NCI/ADR-RES": {"system": "NCI/ADR-RES", "details": "Ovarian; for GI50: Homo sapiens", "in_short": "as §1"}, "IGROV1": {"system": "IGROV1", "details": "for GI50: Homo sapiens, IGROV-1, Ovarian", "in_short": "as §1"}, "HOP-62": {"system": "HOP-62", "details": "NSCL; for GI50: Homo sapiens", "in_short": "as §1"}, "[1]": {"details": "GI50 in nM, read-out: Log(GI50) (converted)"}}, "note": "Where two headings read alike, the source gives them in different places."}
{"molecule": "CC(C)(C)[C@H](c1nc(-c2cc(F)ccc2F)cn1Cc1ccccc1)N(CC[C@H](N)CF)C(=O)CO", "note": "[Compound IIa]", "values": [{"measurement": "GI50", "setting": "NCI-H322M; [1]", "result": 10, "unit": "nM"}, {"measurement": "GI50", "setting": "NCI-H322M; read-out: GI50", "result": 10, "unit": "nM"}, {"measurement": "Differential vs mean Log(GI50)", "setting": "NCI-H322M", "result": "−0.669"}, {"measurement": "Differential vs mean Log(GI50)", "setting": "SNB-75", "result": "−0.669"}, {"measurement": "GI50", "setting": "SNB-75; [1]", "result": 10, "unit": "nM"}, {"measurement": "GI50", "setting": "SNB-75; read-out: GI50", "result": 10, "unit": "nM"}, {"measurement": "GI50", "setting": "UACC-257; [1]", "result": 10, "unit": "nM"}, {"measurement": "GI50", "setting": "UACC-257; read-out: GI50", "result": 10, "unit": "nM"}, {"measurement": "Differential vs mean Log(GI50)", "setting": "UACC-257", "result": "−0.669"}, {"measurement": "Differential vs mean Log(GI50)", "setting": "HS 578T", "result": 0.989}, {"measurement": "GI50", "setting": "HS 578T; [1]", "result": 0.22, "unit": "nM"}, {"measurement": "GI50", "setting": "HS 578T; read-out: GI50", "result": 0.22, "unit": "nM"}, {"measurement": "GI50", "setting": "CAKI-1; [1]", "result": 10, "unit": "nM"}, {"measurement": "GI50", "setting": "CAKI-1; read-out: GI50", "result": 10, "unit": "nM"}, {"measurement": "Differential vs mean Log(GI50)", "setting": "CAKI-1", "result": "−0.669"}, {"measurement": "GI50", "setting": "A498; [1]", "result": 10, "unit": "nM"}, {"measurement": "GI50", "setting": "A498; read-out: GI50", "result": 10, "unit": "nM"}, {"measurement": "Differential vs mean Log(GI50)", "setting": "A498", "result": "−0.669"}, {"measurement": "GI50", "setting": "SN12C; [1]", "result": 10, "unit": "nM"}, {"measurement": "GI50", "setting": "SN12C; read-out: GI50", "result": 10, "unit": "nM"}, {"measurement": "Differential vs mean Log(GI50)", "setting": "SN12C", "result": "−0.669"}, {"measurement": "Differential vs mean Log(GI50)", "setting": "MDA-MB-231", "result": 0.809}, {"measurement": "GI50", "setting": "MDA-MB-231; [1]", "result": 0.333, "unit": "nM"}, {"measurement": "GI50", "setting": "MDA-MB-231; read-out: GI50", "result": 0.333, "unit": "nM"}, {"measurement": "GI50", "setting": "MOLT-4; [1]", "result": 0.331, "unit": "nM"}, {"measurement": "GI50", "setting": "MOLT-4; read-out: GI50", "result": 0.331, "unit": "nM"}, {"measurement": "Differential vs mean Log(GI50)", "setting": "MOLT-4", "result": 0.811}, {"measurement": "GI50", "setting": "NCI-H460; [1]", "result": 0.378, "unit": "nM"}, {"measurement": "GI50", "setting": "NCI-H460; read-out: GI50", "result": 0.378, "unit": "nM"}, {"measurement": "Differential vs mean Log(GI50)", "setting": "NCI-H460", "result": 0.754}, {"measurement": "GI50", "setting": "MDA-MB-435; [1]", "result": 0.152, "unit": "nM"}, {"measurement": "GI50", "setting": "MDA-MB-435; read-out: GI50", "result": 0.152, "unit": "nM"}, {"measurement": "Differential vs mean Log(GI50)", "setting": "MDA-MB-435", "result": 1.149}, {"measurement": "GI50", "setting": "SK-MEL-2; [1]", "result": 2.77, "unit": "nM"}, {"measurement": "GI50", "setting": "SK-MEL-2; read-out: GI50", "result": 2.77, "unit": "nM"}, {"measurement": "Differential vs mean Log(GI50)", "setting": "SK-MEL-2", "result": "−0.112"}, {"measurement": "Differential vs mean Log(GI50)", "setting": "MCF7", "result": "−0.669"}, {"measurement": "GI50", "setting": "MCF7; [1]", "result": 10, "unit": "nM"}, {"measurement": "GI50", "setting": "MCF7; read-out: GI50", "result": 10, "unit": "nM"}, {"measurement": "GI50", "setting": "NCI/ADR-RES; [1]", "result": 4.18, "unit": "nM"}, {"measurement": "GI50", "setting": "NCI/ADR-RES; read-out: GI50", "result": 4.18, "unit": "nM"}, {"measurement": "Differential vs mean Log(GI50)", "setting": "NCI/ADR-RES", "result": "−0.290"}, {"measurement": "GI50", "setting": "IGROV1; [1]", "result": 10, "unit": "nM"}, {"measurement": "GI50", "setting": "IGROV1; read-out: GI50", "result": 10, "unit": "nM"}, {"measurement": "Differential vs mean Log(GI50)", "setting": "IGROV1; Ovarian", "result": "−0.669"}, {"measurement": "GI50", "setting": "HOP-62; [1]", "result": 10, "unit": "nM"}, {"measurement": "GI50", "setting": "HOP-62; read-out: GI50", "result": 10, "unit": "nM"}, {"measurement": "Differential vs mean Log(GI50)", "setting": "HOP-62", "result": "−0.669"}]}
